# Measured values taken from US8362031B2, “Lonidamine analogues and treatment of polycystic kidney disease” (University of Kansas, priority 2004, dated 2013).
# What was measured:
# [1] = tested on: Salmonella Typhimurium TA 100; experiment: Ames test for mutagenicity (plate assay, colony count); settings: 48 hours at 37° C.; for Ames test (+)S9 0.1 mg/pl. / Ames test (+)S9 1 mg/pl. / Ames test (+)S9 10 mg/pl.: (+)S9 mix; for Ames test (−)S9 0.1 mg/pl. / Ames test (−)S9 1 mg/pl. / Ames test (−)S9 10 mg/pl.: (−)S9 mix
# [2] = tested on: M-1 Clone 20; human primary cyst epithelial cells (ADPKD cells); experiment: MTT cell proliferation assay with cAMP (FIGS. 9A-9B); assay type: cell-based; settings: 48 hours
# Experimental: Various compounds were tested for their effects on cell proliferation. In the study, the cell types were M-1 Clone 20, which is an immortalized cell line that mimics PKD, and human primary cyst epithelial cells, or ADPKD cells. The compounds were tested at 1 μM to 100 μM concentrations.
# M-1 clone 20 (“M1 Clone 20”) cells are a model of PKD-like cells, which were created by stably transfecting parental “normal” M-1 immortalized renal cortical collecting duct cells with the C-terminal cytosolic domain (or C-tail) of mouse polycystin-1 (the protein product of the Pkd1 gene. The overexpressed C-tail acts in a dominant-negative fashion, conferring the PKD phenotype to these cells. Their characterization is described in: Sutters, M., Yamaguchi, T., Maser, R. L., Magenheimer, B. S., St. John, P. L., Abrahamson, D. R., Grantham, J. J. and Calvet, J. P. (2001) Polycystin-1 transforms the cAMP growth-responsive phenotype of M-1 cells. Kidney Int. 60, 484-494.
# FIGS. 9A-9B include graphs that show cells grown in the vehicle (i.e. DMSO at two different volumes of 1 uL and 5 uL respectively), cAMP only, and then under the treatment drugs, all of which also had cAMP in them. The comparison drug used was 10 uM of gamendazole. […] Absorbance is a measure of cell number.
# The comparison drug used was 10 uM Gamendazole. The MTT cell proliferation assay was carried out to assess cell number—cell proliferation is essentially cell number. […] Thus, absorbance is a measure of cell number, or cell proliferation. The reference bar is the third bar from the left (cAMP)—the degree of inhibition should be compared to that bar.
# [3] = tested on: Male Long Evans rats; experiment: In vivo antispermatogenic testing in Long Evans rats; settings: for Mortality (25 mg/kg) / Response 25 mg/kg: 25 mg/kg single i.p. injection; for Response 25 mg/kg / Response 200 mg/kg: animals responding out of animals surviving, five days following injection; for Mortality (200 mg/kg) / Response 200 mg/kg: 200 mg/kg single i.p. injection
SMILES,Ames test (+)S9 0.1 mg/pl. [1],Ames test (+)S9 1 mg/pl. [1],Ames test (+)S9 10 mg/pl. [1],Ames test (−)S9 0.1 mg/pl. [1],Ames test (−)S9 1 mg/pl. [1],Ames test (−)S9 10 mg/pl. [1],Inhibition of cell proliferation (MTT absorbance) ([2]; 25 uM),Mortality (25 mg/kg) [3],Response 25 mg/kg [3],Mortality (200 mg/kg) [3],Response 200 mg/kg [3],Inhibition of cell proliferation (MTT absorbance) ([2]; 10 uM)
"NNC(=O)c1nn(Cc2ccc(F)cc2F)c2cc(Cl)ccc12 [JWS-1-282, 1-(2,4-difluorobenzyl)-6-chloro-1H-indazole-3-carboxylic acid hydrazide]",Pass,Pass,Fail,Pass,Pass,Pass,quite effective in inhibiting cell proliferation,–,–,–,–,–
"NNC(=O)c1nn(Cc2ccc(F)cc2Cl)c2cc(Cl)ccc12 [JWS-2-22, 1-(2-chloro, 4-fluorobenzyl)-6-chloro-1H-indazole-3-carboxylic acid hydrazide]",Pass,Pass,Pass,Pass,Pass,Pass,quite effective in inhibiting cell proliferation,–,–,–,–,–
"Cc1ccc2c(C(=O)O)nn(Cc3ccc(Cl)cc3Cl)c2c1 [TH-2-178, 1-(2,4-dichlorobenzyl)-6-methyl-1H-indazole-3-carboxylic acid]",Pass,Pass,Pass,Pass,Pass,Pass,more effective in inhibition of cell proliferation at 25 uM compared to 10 uM,0/5,0/5,0/5,4/5,–
"Cc1ccc2c(C(=O)NN)nn(Cc3ccc(Cl)cc3Cl)c2c1 [TH-2-179, 1-(2,4-dichlorobenzyl)-6-methyl-1H-indazole-3-carboxylic acid hydrazide]",Pass,Pass,Pass,Pass,Pass,Pass,more effective in inhibition of cell proliferation at 25 uM compared to 10 uM,0/5,2/5,0/5,5/5,more effective at 10 uM
"Cc1ccc2c(/C=C/C(=O)O)nn(Cc3ccc(Cl)cc3Cl)c2c1 [TH-2-192, 3-[1-(2,4-dichlorobenzyl)-6-methyl-1H-indazol-3-yl]acrylic acid]",Pass,Pass,Pass,Pass,Pass,Pass,more effective in inhibition of cell proliferation at 25 uM compared to 10 uM,0/5,0/5,4/5,0/4,–
